Experimental data published in US9156801B2, “2-substituted oleanolic acid derivative, method preparing for same, and application thereof” (HANGZHOU BENSHENG PHARMACEUTICAL CO., LTD., priority 2011, dated 2015).
Values after ≈ are worked out from the molar mass of the structure shown.

What was measured:
RPMI8226 cell line = test: multiple myeloma cell growth inhibition, MTT; type: cell-based; details: Homo sapiens, RPMI-8226; for inhibition at 16 µg/mL: RPMI8226, 16 μg/mL compound, 72 h, read-out: IR (cell proliferation inhibition rate); for IC50: RPMI8226, 72 h
Description: Multiple myeloma cell lines: RPMI8226 (multiple myeloma), purchased from Fuxiang Bio-tech Co. Ltd., Shanghai, China.
(§1) Obtaining 6000 well-growing cells as above and inoculating them into wells of a 96-well cell culture plate. The culture medium is the 1640 cell culture medium containing 10% fetal bovine serum. After adding the 2-substituted oleanolic acid derivatives of different concentrations and mixing uniformly, placing the plate in a carbon dioxide cell incubator (5% CO2) at 37° C. and incubated for 72 hours. Then the relative number of viable cells is determined by MTT method. In this experiment, cell proliferation inhibition rate in control group (not treated with any compound) is set as 0%.

Hep G2 cell line = test: solid tumor cell growth inhibition, MTT; type: cell-based, human; details: Homo sapiens; for inhibition at 16 µg/mL: HepG2, 72 h, Hep G2, 16 μg/mL compound, 72 h, read-out: IR (cell proliferation inhibition rate); for IC50: HepG2, Hep G2, 72 h
Description: (§2) Hep-2 (laryngeal carcinoma), A549 (human lung cancer), CaES-17 (esophageal cancer cell), PC-3 (prostate cancer), CNE (nasopharyngeal carcinoma cell), and SK-OV-3 (ovarian cancer cell), all of which are purchased from China Center For Type Culture Collection; RKO (human colon adenocarcinoma cell), MGC 803 (human gastric cancer cell), MG63 (osteosarcoma) and U87 MG (malignant glioma cell), all of which are purchased from Fuxiang Bio-tech Co. Ltd., Shanghai, China; PANC-1 (pancreatic cancer), Hep G2 (human liver cancer cell), Becap37 (human breast cancer cell), and Hela (human cervical cancer cell), all of which are donated by Cancer Research Institute of Zhejiang University, China.
(§3) Obtaining 4000 well-growing human solid tumor cells and inoculating them into wells of a 96-well cell culture plate. The culture medium is DMEM High Glucose cell culture medium containing 10% fetal bovine serum. The plate is placed in a carbon dioxide cell incubator (5% CO2) at 37° C. for 24 hours. After adding the 2-substituted oleanolic acid derivatives of different concentrations and mixing uniformly, the plate is placed in a carbon dioxide cell incubator (5% CO2) at 37° C. and incubated for 72 hours. Then the relative number of the living cells is determined by MTT method. In this experiment, the cell proliferation inhibition rate in control group (not treated with any compound) is set as 0%.

Hela cell line = test: solid tumor cell growth inhibition, MTT; type: cell-based; details: Homo sapiens, 72 h; for IC50: HeLa; for inhibition at 16 µg/mL: Hela, 16 μg/mL compound, read-out: IR (cell proliferation inhibition rate)
Description: as §2, §3

SK-OV-3 cell line = test: solid tumor cell growth inhibition, MTT; type: cell-based; details: Homo sapiens; for IC50: SK-OV-3, 72 h; for inhibition at 16 µg/mL: SK-OV-3, 16 μg/mL compound, 72 h, read-out: IR (cell proliferation inhibition rate)
Description: as §2, §3

MGC 803 cell line = test: solid tumor cell growth inhibition, MTT; type: cell-based; details: Homo sapiens; for inhibition at 16 µg/mL: MGC 803, 16 μg/mL compound, 72 h, read-out: IR (cell proliferation inhibition rate); for IC50: MGC 803, 72 h
Description: as §2, §3

Becap37 cell line = test: solid tumor cell growth inhibition, MTT; type: cell-based; details: Homo sapiens; for inhibition at 16 µg/mL: Becap37, 16 μg/mL compound, 72 h, read-out: IR (cell proliferation inhibition rate); for IC50: Becap37, 72 h
Description: as §2, §3

CaES-17 cell line = test: solid tumor cell growth inhibition, MTT; type: cell-based; details: Homo sapiens, CaEs17; for inhibition at 16 µg/mL: CaES-17, 16 μg/mL compound, 72 h, read-out: IR (cell proliferation inhibition rate); for IC50: CaES-17, 72 h
Description: as §2, §3

CNE cell line = test: solid tumor cell growth inhibition, MTT; type: cell-based; details: Homo sapiens, 72 h; for inhibition at 16 µg/mL: 16 μg/mL compound, read-out: IR (cell proliferation inhibition rate)
Description: as §2, §3

MG-63 cell line = test: solid tumor cell growth inhibition, MTT; type: cell-based; details: Homo sapiens; for IC50: MG-63, 72 h; for inhibition at 16 µg/mL: MG-63, 16 μg/mL compound, 72 h, read-out: IR (cell proliferation inhibition rate)
Description: as §2, §3

A549 cell line = test: solid tumor cell growth inhibition, MTT; type: cell-based; details: Homo sapiens; for IC50: A549, 72 h; for inhibition at 16 µg/mL: A549, 16 μg/mL compound, 72 h, read-out: IR (cell proliferation inhibition rate)
Description: as §2, §3

Hep-2 cell line = test: solid tumor cell growth inhibition, MTT; type: cell-based; details: Homo sapiens; for IC50: HEp-2, 72 h; for inhibition at 16 µg/mL: Hep-2, 16 μg/mL compound, 72 h, read-out: IR (cell proliferation inhibition rate)
Description: as §2, §3

U87 MG cell line = test: solid tumor cell growth inhibition, MTT; type: cell-based; details: Homo sapiens, U-87 MG, 72 h; for inhibition at 16 µg/mL: 16 μg/mL compound, read-out: IR (cell proliferation inhibition rate)
Description: as §2, §3

PC-3 cell line = test: solid tumor cell growth inhibition, MTT; type: cell-based; details: Homo sapiens; for IC50: PC-3, 72 h; for inhibition at 16 µg/mL: PC-3, 16 μg/mL compound, 72 h, read-out: IR (cell proliferation inhibition rate)
Description: as §2, §3

RKO cell line = test: solid tumor cell growth inhibition, MTT; type: cell-based; details: Homo sapiens, 72 h; for inhibition at 16 µg/mL: 16 μg/mL compound, read-out: IR (cell proliferation inhibition rate)
Description: as §2, §3

PANC-1 cell line = test: solid tumor cell growth inhibition, MTT; type: cell-based; details: Homo sapiens; for IC50: PANC-1, 72 h; for inhibition at 16 µg/mL: PANC-1, 16 μg/mL compound, 72 h, read-out: IR (cell proliferation inhibition rate)
Description: as §2, §3

Kasumi-1 cell line = test: leukemia cell growth inhibition, MTT; type: cell-based; details: Homo sapiens; for inhibition at 16 µg/mL: Kasumi-1, 16 μg/mL compound, 72 h, read-out: IR (cell proliferation inhibition rate); for IC50: Kasumi-1, 72 h
Source text: (§4) Leukemia cell lines: leukemia cell lines: K562/adr (drug-resistant, chronic myeloid leukemia, CML), NB4 (acute promyelocytic leukemia, AML), Kasumi-1 (acute myeloid leukemia M2 type, AML-M2), Jurkat (acute lymphoblastic leukemia, ALL), all of which are donated by Cancer Research Institute of Zhejiang University, China; and H9 (acute lymphoblastic leukemia, ALL), which is purchased from China Center for Type Culture Collection (CCTCC).
as §1, with “well-growing leukemia” for “well-growing”, “cells” for “cells as above”

K562/adr cell line = test: leukemia cell growth inhibition, MTT; type: cell-based; details: Homo sapiens, 72 h; for IC50: K562/Adr; for inhibition at 16 µg/mL: K562/adr, 16 μg/mL compound, read-out: IR (cell proliferation inhibition rate)
Source text: as §4
as §1, with “well-growing leukemia” for “well-growing”, “cells” for “cells as above”

Jurkat cell line = test: leukemia cell growth inhibition, MTT; type: cell-based; details: Homo sapiens, 72 h; for inhibition at 16 µg/mL: 16 μg/mL compound, read-out: IR (cell proliferation inhibition rate)
Source text: as §4
as §1, with “well-growing leukemia” for “well-growing”, “cells” for “cells as above”

NB4 cell line = test: leukemia cell growth inhibition, MTT; type: cell-based; details: Homo sapiens, NB-4; for inhibition at 16 µg/mL: NB4, 16 μg/mL compound, 72 h, read-out: IR (cell proliferation inhibition rate); for IC50: NB4, 72 h
Source text: as §4
as §1, with “well-growing leukemia” for “well-growing”, “cells” for “cells as above”

H9 cell line = test: leukemia cell growth inhibition, MTT; type: cell-based; details: Homo sapiens; for IC50: H9, 72 h; for inhibition at 16 µg/mL: H9, 16 μg/mL compound, 72 h, read-out: IR (cell proliferation inhibition rate)
Source text: as §4
as §1, with “well-growing leukemia” for “well-growing”, “cells” for “cells as above”

IC50 (RPMI8226 cell line) [µg/mL] | IC50 (Hep G2 cell line) [µg/mL] | IC50 (Hela cell line) [µg/mL] | IC50 (SK-OV-3 cell line) [µg/mL] | IC50 (MGC 803 cell line) [µg/mL] | IC50 (Becap37 cell line) [µg/mL] | IC50 (CaES-17 cell line) [µg/mL] | IC50 (CNE cell line) [µg/mL] | IC50 (MG-63 cell line) [µg/mL] | IC50 (A549 cell line) [µg/mL] | Compound | inhibition at 16 µg/mL (RPMI8226 cell line) [%] | inhibition at 16 µg/mL (Hep G2 cell line) [%] | inhibition at 16 µg/mL (Hela cell line) [%] | inhibition at 16 µg/mL (SK-OV-3 cell line) [%] | inhibition at 16 µg/mL (MGC 803 cell line) [%] | inhibition at 16 µg/mL (Becap37 cell line) [%] | inhibition at 16 µg/mL (CaES-17 cell line) [%] | inhibition at 16 µg/mL (CNE cell line) [%] | inhibition at 16 µg/mL (MG-63 cell line) [%] | inhibition at 16 µg/mL (A549 cell line) [%] | further results
2.43 (≈ 3.8 µM) | 8.68 (≈ 13.6 µM) | 11 (≈ 17.3 µM) | 10.2 (≈ 15.9 µM) | 10.8 (≈ 16.9 µM) | > 16 | 11.6 (≈ 18.1 µM) | 15.5 (≈ 24.2 µM) | 12.5 (≈ 19.5 µM) | 10.4 (≈ 16.3 µM) | COC(=O)[C@]12CCC(C)(C)CC1C1=CCC3[C@@]4(C)CC(C(=O)NCCCN5CCOCC5)C(=O)C(C)(C)C4CC[C@@]3(C)[C@]1(C)CC2 (some centres unmarked) [BS-OA-037] | 99.1 | 95.7 | 93.6 | 90.9 | 80.5 | 8.4 | 82.3 | 52.6 | 64.6 | 82 | IC50 (Hep-2 cell line): > 16 µg/mL; inhibition at 16 µg/mL (Hep-2 cell line): 25.6%; inhibition at 16 µg/mL (U87 MG cell line): 92.6%; IC50 (U87 MG cell line): 11.1 µg/mL (≈ 17.4 µM); IC50 (PC-3 cell line): 18.7 µg/mL (≈ 29.2 µM); inhibition at 16 µg/mL (PC-3 cell line): 44.2%; inhibition at 16 µg/mL (RKO cell line): 62.6%; IC50 (RKO cell line): 14.4 µg/mL (≈ 22.5 µM); IC50 (PANC-1 cell line): > 16 µg/mL; inhibition at 16 µg/mL (PANC-1 cell line): 11.3%; inhibition at 16 µg/mL (Kasumi-1 cell line): 63.7%; IC50 (Kasumi-1 cell line): 13.5 µg/mL (≈ 21.1 µM); IC50 (K562/adr cell line): 1.57 µg/mL (≈ 2.46 µM); inhibition at 16 µg/mL (K562/adr cell line): 97.6%; inhibition at 16 µg/mL (Jurkat cell line): 80.4%; IC50 (Jurkat cell line): 11.5 µg/mL (≈ 17.9 µM); inhibition at 16 µg/mL (NB4 cell line): 97.6%; IC50 (NB4 cell line): 4.59 µg/mL (≈ 7.18 µM); IC50 (H9 cell line): 8.73 µg/mL (≈ 13.7 µM); inhibition at 16 µg/mL (H9 cell line): 95.8%
0.68 (≈ 1.14 µM) | 2.36 (≈ 3.95 µM) | 3.47 (≈ 5.81 µM) | 3.63 (≈ 6.08 µM) | 2.84 (≈ 4.76 µM) | 4.32 (≈ 7.24 µM) | 2.97 (≈ 4.98 µM) | 3.89 (≈ 6.52 µM) | 2.72 (≈ 4.56 µM) | 2.06 (≈ 3.45 µM) | COC(=O)[C@]12CCC(C)(C)CC1C1=CCC3[C@@]4(C)CC(C(=O)NCCCN(C)C)C(=O)C(C)(C)C4CC[C@@]3(C)[C@]1(C)CC2 (some centres unmarked) [BS-OA-042] | 98.9 | > 96 | 98.9 | 97.9 | 99.2 | 98.7 | 98.1 | 99.5 | 98.2 | 96.9 | IC50 (Hep-2 cell line): 5.99 µg/mL (≈ 10 µM); inhibition at 16 µg/mL (Hep-2 cell line): 95.2%; inhibition at 16 µg/mL (U87 MG cell line): 98.6%; IC50 (U87 MG cell line): 2.54 µg/mL (≈ 4.26 µM); IC50 (PC-3 cell line): 4.78 µg/mL (≈ 8.01 µM); inhibition at 16 µg/mL (PC-3 cell line): 100%; inhibition at 16 µg/mL (RKO cell line): 100%; IC50 (RKO cell line): 3.29 µg/mL (≈ 5.51 µM); IC50 (PANC-1 cell line): 5.02 µg/mL (≈ 8.41 µM); inhibition at 16 µg/mL (PANC-1 cell line): 99.4%; inhibition at 16 µg/mL (Kasumi-1 cell line): 99.1%; IC50 (Kasumi-1 cell line): 4.1 µg/mL (≈ 6.87 µM); IC50 (K562/adr cell line): 0.64 µg/mL (≈ 1.07 µM); inhibition at 16 µg/mL (K562/adr cell line): 98.4%; inhibition at 16 µg/mL (Jurkat cell line): 99%; IC50 (Jurkat cell line): 2.43 µg/mL (≈ 4.07 µM); inhibition at 16 µg/mL (NB4 cell line): 100%; IC50 (NB4 cell line): 2.63 µg/mL (≈ 4.41 µM); IC50 (H9 cell line): 3.12 µg/mL (≈ 5.23 µM); inhibition at 16 µg/mL (H9 cell line): 95.9%
